Experimental data: US11925653B2, “Combination therapy effective against microorganisms, including drug resistant microorganisms” (Fleurir ABX LLC, priority 2021, dated 2024)
Marks after values point to notes of the source that are not given here.

Columns and labels:
Escherichia coli [1] = assay: MIC and synergy checkerboard assay, broth microdilution; format: cell-based
Protocol: (§1) The described novel combination was tested against both reference, and clinically resistant strains of S. aureus, E, coli, K. pneumoniae, and P. aeruginosa. Reference and clinical isolates were obtained from the American Type Culture Collection (ATCC, Manasas, VA.) and International Health Management Associates, Inc. (Schaumberg, IL). Bacteria were cultured in trypticase soy broth, concentrated 10-fold by centrifugation, and cryopreserved in the same medium containing 20% glycerol by holding at −80° C. Every two weeks a small amount of frozen culture was removed aseptically, and streaked on fresh trypticase soy agar plates to act as a working inoculum. Following overnight growth at about 37° C., the plates were wrapped in parafilm, and held at about 4° C. Bacteria (4-5 colonies) were then aseptically transferred into broth growth medium for assays as needed.
(§2) Minimum inhibitory concentration (MIC) assays were performed in a manner as described for the CLSI Agar dilution or broth microdilution assay guideline (see, Clinical Laboratory Standards Institute, 2009, Methods for Dilution Antimicrobial Susceptibility Tests for Bacteria That Grow Aerobically; Approved Standard, Eighth Edition, M07-A8, Vol. 29, No. 2). For example, known antibiotics or the compositions described herein were dissolved, serially diluted, and then added to tempered molten Mueller-Hinton Agar before pouring of plates; or were dissolved, and then serially diluted in 100 μL cation-adjusted Mueller-Hinton broth across the assay plate in the classical 2-fold geometric format. D-glucose-6-phosphate was included as a medium supplement in both agar, and broth at a concentration of 50 mg/L. Antibiotic concentrations for agar assay were at the final concentration. Antibiotic concentrations for broth microdilution in each well at this point were double what the final assay concentration would be. Bacterial inocula were prepared by swabbing several colonies from a fresh agar plate, and re-suspending the bacteria to a density that was the 0.5 McFarland turbidity standard, considered close or equivalent to 1×10^8 CFU/mL. For agar dilution, a steers replicator was utilized to deliver 1×10^4 CFU/spot. For broth microdilution, the bacterial inocula were diluted in the cation-adjusted Mueller-Hinton broth to 1×10^6 CFU/mL, and 100 μL was overlayered onto the wells containing a diluted antibiotic or a composition described. Following incubation as per the guideline, results were recorded as growth or no growth, and the lowest concentration of the antibiotic or the composition described where no growth was observed was declared the MIC.
(§3) To assay for synergy of antibacterial combinations, a recognized synergy checkerboard assay, adapted from the CLSI guideline microdilution assay, was utilized (see Eliopoulos, G. M., and Moellering, R. C, Jr., 1996. Antimicrobial Combinations, pg. 330-396. In: Lorian, V. (Ed.), Antibiotics in Laboratory Medicine, 4th Ed., Williams & Wilkins; Baltimore, MD). In the case of the agar dilution method, each antibiotic alone, or in combination was added to agar prior to plate pouring. For broth microdilution, the first compound (or antibiotic or agent) was diluted in cation-adjusted Mueller-Hinton broth across the plate along the horizontal axis with each well in a row containing 50 μL of an identical concentration of compound (or antibiotic). Along the vertical axis a dilution series of the second compound (or antibiotic) was dispensed. At this point the drug concentrations are four-fold of the final desired working concentration. […] Following incubation, wells with no growth are noted. […] FIC=(MIC-A combination/MIC-A alone)+(MIC-B combination/MIC-B alone).
(§4) In the above, FIC: Synergy=FIC<0.5; Additive=FIC>0.5-1; Indifferent=FIC>1-2; Antagonism=FIC>2-4.

Pseudomonas aeruginosa = assay: as above; format: cell-based
Protocol: as §1, §2, §3, §4

Staphylococcus aureus = assay: as above; format: cell-based
Protocol: as §1, §2, §3, §4

Escherichia coli [2] = assay: MIC and synergy checkerboard assay, agar dilution; format: cell-based
Protocol: as §1, §2, §3, §4

K. pneumonia = assay: MIC and synergy checkerboard assay, agar dilution; format: cell-based
Protocol: as §1, §2, §3, §4

P. aeruginosa = assay: MIC and synergy checkerboard assay, agar dilution; format: cell-based
Protocol: as §1, §2, §3, §4

[3] = representative pharmacokinetic parameters; format: in vivo
Text: The therapeutically effective amount may be modified by pharmacokinetic, and pharmacodynamic analysis as is understood in the field. In some embodiments, the novel composition may be provided prophylactically or preventatively or protectively, which may, in some instances, be at or below a therapeutically effective amount.

Which “MIC (Combo as F/DP/SM; second compound as DP/SM)” value (shortened to “MIC”) (Escherichia coli [1]; Escherichia coli 846439) does the source give for `C[C@@H]1O[C@@H]1P(=O)(O)O` [Fosfomycin, cis-1,2-epoxypropyl phosphonic acid] here?
Its value is 32 µg/mL.

And the “MIC” value (Escherichia coli [1]; Escherichia coli 846446)?
The value was 2 µg/mL.

What about the “MIC” value (Escherichia coli [1]; Escherichia coli 846450) of the same compound?
Its value is 16 µg/mL.

And the “MIC” value (Escherichia coli [1]; Escherichia coli 857021)?
Its value is 32 µg/mL.

And the “MIC” value (Escherichia coli [1]; Escherichia coli 863686)?
The value was 32 µg/mL.

What about the “MIC” value (Escherichia coli [1]; Escherichia coli (854535)) of the same compound?
The value was 64 µg/mL.

And the “MIC” value (Escherichia coli [1]; Escherichia coli (928017))?
The value was 64 µg/mL.

And the “MIC” value (Escherichia coli [1]; Escherichia coli (ATCC 25922))?
Its value is 8 µg/mL.

What about the “MIC” value (Pseudomonas aeruginosa; P. aeruginosa 826882) of the same compound?
Its value is 64 µg/mL.

What about the “MIC” value (Pseudomonas aeruginosa; P. aeruginosa 880238) of the same compound?
Its value is 64 µg/mL.

And the “MIC” value (Pseudomonas aeruginosa; P. aeruginosa 906939)?
The value was 64 µg/mL.

What about the “MIC” value (Pseudomonas aeruginosa; P. aeruginosa 926474) of the same compound?
Its value is 32 µg/mL.

What about the “MIC” value (Pseudomonas aeruginosa; P. aeruginosa 945543) of the same compound?
Its value is 32 µg/mL.

And the “MIC” value (Pseudomonas aeruginosa; P. aeruginosa 945545)?
Its value is 64 µg/mL.

What about the “MIC” value (Pseudomonas aeruginosa; P. aeruginosa 945748) of the same compound?
The value was 64 µg/mL.

What about the “MIC” value (Pseudomonas aeruginosa; Pseudomonas aeruginosa (924190)) of the same compound?
The value was 256* μg/ml.

And the “MIC” value (Pseudomonas aeruginosa; Pseudomonas aeruginosa (985543))?
Its value is 128* μg/ml.

What about the “MIC” value (Staphylococcus aureus; S. aureus 829025 (MRSA strains)) of the same compound?
The value was 4 µg/mL.

What about the “MIC” value (Staphylococcus aureus; S. aureus 829049 (MRSA strains)) of the same compound?
Its value is 8 µg/mL.

And the “MIC” value (Staphylococcus aureus; S. aureus 903887 (MRSA strains))?
Its value is 8 µg/mL.

And the “MIC” value (Staphylococcus aureus; S. aureus 920516 (MRSA strains))?
Its value is 2 µg/mL.

What about the “MIC” value (Staphylococcus aureus; S. aureus 920962 (MRSA strains)) of the same compound?
Its value is 2 µg/mL.

What about the “MIC” value (Staphylococcus aureus; S. aureus 927596 (MRSA strains)) of the same compound?
The value was 8 µg/mL.

And the “MIC” value (Staphylococcus aureus; S. aureus 938125 (MRSA strains))?
Its value is 4 µg/mL.

What about the “MIC” value (Staphylococcus aureus; S. aureus 953041 (MRSA strains)) of the same compound?
The value was 8 µg/mL.

What about the “MIC” value (Staphylococcus aureus; S. aureus 956270 (MRSA strains)) of the same compound?
Its value is 28 µg/mL.

What about the “MIC” value (Staphylococcus aureus; S. aureus 956362 (MRSA strains)) of the same compound?
Its value is 16 µg/mL.

And the “MIC” value (Staphylococcus aureus; S. aureus 967287 (MRSA strains))?
Its value is 8 µg/mL.

What about the “MIC” value (Staphylococcus aureus; S. aureus 974980 (MRSA strains)) of the same compound?
The value was 8 µg/mL.

And the “MIC” value (Staphylococcus aureus; S. aureus 979234 (MRSA strains))?
Its value is 16 µg/mL.

And the “MIC” value (Staphylococcus aureus; S. aureus 1045190 (MRSA strains))?
Its value is 2 µg/mL.

And the “MIC” value (Staphylococcus aureus; Staphylococcus aureus (918019 - MRSA))?
The value was 32 µg/mL.

And the “MIC” value (Staphylococcus aureus; Staphylococcus aureus (959797 - MRSA))?
The value was 16 µg/mL.

What about the “MIC” value (Staphylococcus aureus; Staphylococcus aureus (ATCC 29213 - MSSA)) of the same compound?
The value was 32 µg/mL.

And the “MIC” value (Staphylococcus aureus; Staphylococcus aureus (ATCC 33591))?
Its value is 64 µg/mL.

And the “MIC” value (Staphylococcus aureus; Staphylococcus aureus (MGH-04))?
The value was 128* μg/ml.

And the “MIC” value (Staphylococcus aureus; Staphylococcus aureus (USA-300 CDC- MRSA))?
The value was 64 µg/mL.

And the “MIC” value (Escherichia coli [2]; Escherichia coli 846439)?
The value was 64 µg/mL.

And the “MIC” value (Escherichia coli [2]; Escherichia coli 846446)?
The value was 4 µg/mL.

And the “MIC” value (Escherichia coli [2]; Escherichia coli 846450)?
The value was 32 µg/mL.

What about the “MIC” value (Escherichia coli [2]; Escherichia coli 846455) of the same compound?
Its value is 128* μg/ml.

What about the “MIC” value (Escherichia coli [2]; Escherichia coli 847149) of the same compound?
The value was 128* μg/ml.

And the “MIC” value (Escherichia coli [2]; Escherichia coli 854535)?
Its value is 128* μg/ml.

And the “MIC” value (Escherichia coli [2]; Escherichia coli 854566)?
The value was 128* μg/ml.

What about the “MIC” value (Escherichia coli [2]; Escherichia coli 857021) of the same compound?
The value was 64 µg/mL.

What about the “MIC” value (Escherichia coli [2]; Escherichia coli 863078) of the same compound?
The value was 128* μg/ml.

What about the “MIC” value (Escherichia coli [2]; Escherichia coli 863686) of the same compound?
The value was 64 µg/mL.

What about the “MIC” value (Escherichia coli [2]; Escherichia coli ATCC 25922) of the same compound?
The value was 16 µg/mL.

What about the “MIC” value (K. pneumonia; K. pneumonia 848788) of the same compound?
The value was 256* μg/ml.

And the “MIC” value (K. pneumonia; K. pneumonia 857147)?
The value was 32 µg/mL.

And the “MIC” value (K. pneumonia; K. pneumonia 857187)?
The value was 128* μg/ml.

And the “MIC” value (K. pneumonia; K. pneumonia 868968)?
The value was 256* μg/ml.

What about the “MIC” value (K. pneumonia; K. pneumonia 868972) of the same compound?
The value was 128* μg/ml.

What about the “MIC” value (K. pneumonia; K. pneumonia 869028) of the same compound?
The value was 256* μg/ml.

And the “MIC” value (K. pneumonia; K. pneumonia 870964)?
Its value is 256* μg/ml.

What about the “MIC” value (K. pneumonia; K. pneumonia 875638) of the same compound?
Its value is 64 µg/mL.

What about the “MIC” value (K. pneumonia; K. pneumonia 892483) of the same compound?
The value was 256* μg/ml.

What about the “MIC” value (K. pneumonia; K. pneumonia 926439) of the same compound?
Its value is 128* μg/ml.

And the “MIC” value (P. aeruginosa; P. aeruginosa 826882)?
The value was 128* μg/ml.

And the “MIC” value (P. aeruginosa; P. aeruginosa 880238)?
Its value is 128* μg/ml.

What about the “MIC” value (P. aeruginosa; P. aeruginosa 889058) of the same compound?
Its value is 128* μg/ml.

And the “MIC” value (P. aeruginosa; P. aeruginosa 906939)?
Its value is 128* μg/ml.

And the “MIC” value (P. aeruginosa; P. aeruginosa 914881)?
Its value is 128* μg/ml.

And the “MIC” value (P. aeruginosa; P. aeruginosa 924190)?
Its value is 256* μg/ml.

And the “MIC” value (P. aeruginosa; P. aeruginosa 926474)?
The value was 64 µg/mL.

What about the “MIC” value (P. aeruginosa; P. aeruginosa 945543) of the same compound?
Its value is 128* μg/ml.

What about the “MIC” value (P. aeruginosa; P. aeruginosa 945545) of the same compound?
The value was 128* μg/ml.

And the “MIC” value (P. aeruginosa; P. aeruginosa 945748)?
The value was 128* μg/ml.

And the “MIC” value (P. aeruginosa; P. aeruginosa PAO1)?
The value was 32 µg/mL.

And the kel (elimination rate constant) ([3]; Dose: Fosfomycin 3000 mg, trimethoprim 720 mg)?
The kel (elimination rate constant) was 0.122 h⁻¹.

What about the half-life ([3]; in vivo, 3000 mg, read-out: T ½ (converted)) of the same compound?
Its half-life is 5.7 h.

And the Tmax ([3]; in vivo, read-out: Tmax)?
Its Tmax is 2 h.
